Measurements from patent US8686113B2 (priority 2009, dated 2014).
Converted amounts (≈) assume the structure as drawn. Like-named read-outs stand apart in the source and are kept apart here. Non-standard residues stand in square brackets, D forms with d. Residues, ends and D or L forms follow the SMILES beside them. Hyp = O=C(O)[C@@H]1C[C@@H](O)CN1; Tle = CC(C)(C)[C@H](N)C(=O)O; Orn = NCCC[C@H](N)C(=O)O

Legend:
[1] = test system: bacterial proteases (E. coli BL21 A1 lysate); assay: Stability against bacterial proteases in E. coli lysate; assay type: in vitro ADME; details: E. coli lysate with 0.5 mg/mL protein concentration, 37° C.
Description: (§1) For the bacterial lysate, 500 mL of nutrient broth (Carl Roth GmbH+Co. KG, Karlsruhe) was inoculated with E. coli BL21 A1 and incubated overnight at 37° C. 2×250 mL bacterial suspension were centrifuged for 25 min at 5000 rpm and 4° C. in a Beckman Avanti™ J-20-XP centrifuge with JLA-10.500 rotor (Beckman Coulter, Fullerton, U.S.A.). The pellets were each suspended in 30 mL PBS (pH 7.4) and centrifuged again in a Beckman Allegra™ 2IR centrifuge (Beckman Coulter, Fullerton, U.S.A.). The pellets were each suspended in 10 mL PBS and were disrupted with ultrasound (Vibra-cell™ microtip, Fisher Bioblock Scientific, Illkirch, France) 2×5 min (750 W; amplitude 40%; 2 s on/3 s off) on ice. The bacterial lysates were combined and 1 mL aliquots were centrifuged at 15400 rpm for 20 min at 4° C. (Beckman Allegra™). The supernatants were removed and stored at −20° C. The protein content of the bacterial lysate was determined by protein determination according to Bradford.
(§2) A solution of 0.15 μg/mL peptide in bacterial lysate with protein content of 1.5 mg/mL or 0.5 mg/mL was incubated at 37° C. After 0, 30, 60, 120, 240 or 360 min, 200 μL was taken from each and the proteins were precipitated with 50 μL of 15% trichloroacetic acid. Then it was incubated for 10 min at 4° C. and then centrifuged for 5 min at 13000 rpm in a Minispin desktop centrifuge. 210 μL was taken from the supernatant and neutralized with 1 mol/L sodium hydroxide solution. The intact peptide and the degradation products were analyzed by HPLC. 60 μL of 3% aqueous acetonitrile with 0.1% trifluoroacetic acid (TFA) was added to the solution and 250 μL of the mixture was injected. After chromatographic separation, the constituents were identified by MALDI-TOF-MS,
(§3) In order to investigate the stability against bacterial proteases, a lysate was prepared from an overnight culture of E. coli BL21 A1 and the peptides were incubated in it. Using Bradford protein determination, the protein concentration was adjusted to 0.5 or 1.5 mg/mL.

[2] = test system: Escherichia coli DSM 10233
Description: (§4) The minimum inhibitory concentrations (MIC) of the antimicrobial peptides and peptide derivatives were determined in microdilution assays. These used a continuous peptide dilution in sterile flat-bottomed 96-well microtiter plates (polystyrene, Greiner Bio-One GmbH, Frickenhausen, Germany) and a total volume of 100 μL per well. The aqueous peptide or peptidomimetic solutions were diluted with 1% TSB water, to obtain a final concentration of 256 μg/mL. 50 μL of the peptide or peptidomimetic solution was pipetted into the first well of each series and stirred. From this solution, 50 μL was transferred to the second well, stirred and again 50 μL was transferred to the next well, and so on. A double dilution series is obtained, beginning at 256 μg/mL in the first well to 125 ng/mL in the twelfth well. The bacteria, e.g. E. coli BL21 A1, were cultured overnight at 37° C. in nutrient broth (NB, Carl Roth GmbH+Co. KG, Karlsruhe, Germany). 50 μL of a 5×10^6 bacteria/mL suspension in 1% TSB was added to each well of the microtiter plate and thus a final concentration of the peptides or peptidomimetics from 128 μg/mL (well 1) to 62.5 ng/mL (well 12) was established in each series. The plates were incubated at 37° C. for 20 h and then the absorption was measured at 595 nm with a TECAN microtiter plate spectrophotometer (Tecan Trading AG, Mannedorf, Switzerland). The MIC values of all peptides and peptidomimetics were determined in triplicate. Sterile water was used as negative control.
(§5) The peptides shown in Table 8 were investigated for their MIC against pathogenic bacteria such as E. coli DSM 10233, K. pneumoniae DSM 681 and P. aeruginosa DSM 3227.

[3] = test system: Klebsiella pneumoniae DSM 681
Description: as §4, §5

[4] = test system: Pseudomonas aeruginosa DSM 3227
Description: as §4, §5

[5] = mouse, serum
[6] = 25% aqueous mouse serum, 37° C., 75 μg/mL peptide
Description: For this, the peptides and peptidomimetics were dissolved in water, mouse serum was added and the peptide concentration was adjusted to 75 μg/mL. While shaking continuously, the mixture was incubated at 37° C. After 0, 30, 60, 120, 240 and 360 minutes, in each case an aliquot was taken and mixed with 15% aqueous trichloroacetic acid (Carl Roth GmbH & Co. KG; Karlsruhe, Germany). After incubation on ice for a further 10 minutes, the precipitated serum proteins were centrifuged off (5 min, 13400 rpm, MiniSpin, Eppendorf AG, Hamburg, Germany). The supernatant was removed, neutralized with 1 mol/L aqueous sodium hydroxide solution (Fluke Chemie GmbH, Buchs, Switzerland) and stored at −20° C. until analysis.
The supernatants were analyzed by RP-HPLC with a linear acetonitrile gradient (Biosolve BV, Valkenswaard, The Netherlands) in the presence of 0.1% trifluoroacetic acid (TFA, UV-grade, Fluka Chemie GmbH, Buchs, Switzerland) as ion-pairing reagent. The fractions were co-crystallized with α-cyanohydroxycinnamic acid (Bruker Daltonik GmbH; Bremen, Germany) as matrix (5.3 mg/mL in 50% acetonitrile in 0.1% aqueous TFA) and were analyzed with a tandem mass spectrometer (MALDI-TOF/TOF-MS, 4700 Proteomics Analyzer; Applied Biosystems GmbH, Weiterstadt, Germany) in the positive-ion reflector mode. The proportion of intact peptides and their degradation products or metabolites could thus be identified and quantified at the individual time points. The control used was 25% aqueous mouse serum, which was analyzed in parallel for the same time intervals.

E. coli BL21 A1 = assay type: cell-based, Escherichia coli; details: BL21, 20 h
Summary of the method: (§6)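 Broth microdilution in 1% TSB with twofold peptide series, final 128 μg/mL to 62.5 ng/mL, against 5×10^6 bacteria/mL stock suspension added 1:1. Incubated 20 h at 37 °C, growth read by absorbance at 595 nm; MIC is the lowest concentration with no growth, determined in triplicate.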

M. luteus 10240 = assay: Growth inhibition assay (microdilution MIC); assay type: cell-based, Micrococcus luteus; details: 10240, 20 h
Summary of the method: as §6

[7] = Stability against bacterial proteases in E. coli lysate; assay type: in vitro ADME; details: E. coli lysate with 0.5 mg/mL protein concentration; for remaining at 4 h, 0.15 μg/mL: E. coli BL21 A1 lysate (bacterial proteases), pH 7.4, read-out: percentage printed under half-life >240 min (peptide remaining)
Description: as §1, §2, §3

E. coli 045-849 SENTRY = details: ¼ Muller-Hinton medium
Description: as §4
(§7) The tests were in this case carried out in Mueller-Hinton medium (¼ concentrated), which is equivalent to 1% TSB.

E. coli ATCC BAA-457 = details: ¼ Muller-Hinton medium
Description: as §4, §7

E. coli D31 J. Wilson = details: ¼ Muller-Hinton medium
Description: as §4, §7

K. pneumoniae 012-3131 = test system: K. pneumoniae 012-3131
Description: as §4, §7

K. pneumoniae ATCC 27799 = details: ATCC 27799
Description: as §4, §7

[8] = test system: K. pneumoniae K6 ATCC 700603; details: ATCC 700603
Description: as §4, §7

[9] = test system: P. aeruginosa 10 J. Wilson
Description: as §4, §7

P. aeruginosa 39324 = test system: P. aeruginosa 39324
Description: as §4, §7

P. mirabilis ATCC 7002 = details: ¼ Muller-Hinton medium
Description: as §4, §7

P. vulgaris ATCC 6896 = details: ¼ Muller-Hinton medium
Description: as §4, §7

S. saprophyticus 15305 = test system: S. saprophyticus 15305
Description: as §4, §7

[10] = test system: S. typhimurium ATCC 14028
Description: as §4, §7

[11] = test system: S. typhimurium ATCC 700408
Description: as §4, §7

[12] = test system: S. typhimurium s5 (J. Weiser); details: ¼ Muller-Hinton medium
Description: as §4, §7
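Wherever Half-life in 25% mouse serum is given: intact peptide left at successive time points measured by reversed-phase HPLC with an acetonitrile gradient in the supernatant after precipitation of serum proteins.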

CC[C@H](C)[C@H](NC(=O)[C@H](CCCN)NC(=O)[C@H](CCCNC(=N)N)NC(=O)[C@@H]1CCCN1C(=O)[C@@H]1CCCN1C(=O)[C@H](CCCNC(=N)N)NC(=O)[C@@H]1CCCN1C(=O)[C@H](CCCNC(=N)N)NC(=O)[C@@H]1CCCN1C(=O)[C@H](CC(C)C)NC(=O)[C@H](Cc1ccc(O)cc1)NC(=O)[C@@H]1CCCN1C(=O)[C@@H]1CCCN1C(=O)[C@H](CCCCN)NC(=O)[C@H](CC(=O)O)NC(=O)[C@@H](N)C(C)C)C(=O)N[C@@H](Cc1ccc(O)cc1)C(=O)N[C@@H](CC(N)=O)C(=O)N[C@@H](CCCN)C(N)=O [compound 72] (H-VDKPPYLPRPRPPR[Orn]IYN[Orn]-NH2)
Half-life in E. coli lysate [1]: 2.08 h
MIC E. coli DSM 10233 [2]: 32 µg/mL (≈ 13.9 µM)
MIC K. pneumoniae DSM 681 [3]: 4 µg/mL (≈ 1.73 µM)
MIC P. aeruginosa DSM 3227 [4]: >32 µg/mL
half-life [5]: 2.92 h
Half-life in 25% mouse serum [6]: >6 h

CC[C@H](C)[C@H](NC(=O)[C@H](CCCN)NC(=O)[C@H](CCCNC(=N)N)NC(=O)[C@@H]1C[C@@H](O)CN1C(=O)[C@@H]1CCCN1C(=O)[C@H](CCCNC(=N)N)NC(=O)[C@@H]1CCCN1C(=O)[C@H](CCCNC(=N)N)NC(=O)[C@@H]1CCCN1C(=O)[C@H](CC(C)C)NC(=O)[C@H](Cc1ccc(O)cc1)NC(=O)[C@@H]1CCCN1C(=O)[C@@H]1CCCN1C(=O)[C@H](CCCCN)NC(=O)[C@H](CC(=O)O)NC(=O)[C@@H](N)C(C)C)C(=O)N[C@@H](Cc1ccc(O)cc1)C(=O)N[C@@H](CC(N)=O)C(=O)N[C@@H](CCCN)C(N)=O [compound 107] (H-VDKPPYLPRPRP[Hyp]R[Orn]IYN[Orn]-NH2)
MIC E. coli BL21 A1 (E. coli BL21 A1): 4 µg/mL (≈ 1.72 µM)
MIC M. luteus 10240 (M. luteus 10240): 4 µg/mL (≈ 1.72 µM)
MIC E. coli DSM 10233 [2]: 16 µg/mL (≈ 6.89 µM)
MIC K. pneumoniae DSM 681 [3]: 4 µg/mL (≈ 1.72 µM)
MIC P. aeruginosa DSM 3227 [4]: >32 µg/mL

CC[C@H](C)[C@H](NC(=O)[C@@H]1C[C@@H](O)CN1C(=O)[C@H](CCCNC(=N)N)NC(=O)[C@@H]1C[C@@H](O)CN1C(=O)[C@@H]1CCCN1C(=O)[C@H](CCCNC(=N)N)NC(=O)[C@@H]1CCCN1C(=O)[C@H](CCCNC(=N)N)NC(=O)[C@@H]1CCCN1C(=O)[C@H](CC(C)C)NC(=O)[C@H](Cc1ccc(O)cc1)NC(=O)[C@@H]1CCCN1C(=O)[C@@H]1CCCN1C(=O)[C@H](CCCCN)NC(=O)[C@H](CC(=O)O)NC(=O)[C@@H](N)C(C)C)C(=O)N[C@@H](Cc1ccc(O)cc1)C(=O)N[C@@H](CC(N)=O)C(=O)N[C@@H](CCCN)C(N)=O [compound 108] (H-VDKPPYLPRPRP[Hyp]R[Hyp]IYN[Orn]-NH2)
MIC E. coli BL21 A1 (E. coli BL21 A1): 2 µg/mL (≈ 0.862 µM)
MIC M. luteus 10240 (M. luteus 10240): 32 µg/mL (≈ 13.8 µM)
remaining at 4 h, 0.15 μg/mL [7]: 60%
half-life ([7]; 37° C.): > 4 h
MIC E. coli DSM 10233 [2]: 1 µg/mL (≈ 0.431 µM)
MIC K. pneumoniae DSM 681 [3]: 2 µg/mL (≈ 0.862 µM)
MIC P. aeruginosa DSM 3227 [4]: 16 to 32 µg/mL
half-life [5]: 2.5 h

CC(C)C[C@H](NC(=O)[C@H](Cc1ccc(O)cc1)NC(=O)[C@@H]1CCCN1C(=O)[C@@H]1CCCN1C(=O)[C@H](CCCCN)NC(=O)[C@H](CC(=O)O)NC(=O)[C@@H](N)C(C)C)C(=O)N1CCC[C@H]1C(=O)N[C@@H](CCCNC(=N)N)C(=O)N1CCC[C@H]1C(=O)N[C@@H](CCCNC(=N)N)C(=O)N1CCC[C@H]1C(=O)N1CCC[C@H]1C(=O)N[C@@H](CCCNC(=N)N)C(=O)N[C@@H](CCCN)C(=O)N[C@H](C(=O)N[C@@H](Cc1ccc(O)cc1)C(=O)N[C@@H](CC(N)=O)C(=O)N[C@@H](CCCN)C(N)=O)C(C)(C)C [compound 109] (H-VDKPPYLPRPRPPR[Orn][Tle]YN[Orn]-NH2)
MIC E. coli BL21 A1 (E. coli BL21 A1): 4 µg/mL (≈ 1.73 µM)
MIC M. luteus 10240 (M. luteus 10240): 4 µg/mL (≈ 1.73 µM)
remaining at 4 h, 0.15 μg/mL [7]: 90%
Half-life in E. coli lysate [1]: >4 h
half-life [5]: 2.17 h

H-GKPRPYSPRPTSHPRPIRV-OH [compound 89]
MIC E. coli BL21 A1 (E. coli BL21 A1): 4 µg/mL
MIC E. coli 045-849 SENTRY (E. coli 045-849 SENTRY): 2 µg/mL
MIC E. coli SEQ 102ATCC # BAA-4 57 (E. coli ATCC BAA-457): 2 µg/mL
MIC E. coli D31 J. Wilson (E. coli D31 J. Wilson): 4 µg/mL
MIC K. pneumoniae 012-3131 (K. pneumoniae 012-3131): 4 µg/mL
MIC K. pneumoniae ATCC 27799 (K. pneumoniae ATCC 27799): 8 µg/mL
MIC K. pneumoniae K6 ATCC 700603 [8]: 8 µg/mL
MIC P. aeruginosa 10 J. Wilson [9]: 16 µg/mL
MIC P. aeruginosa 39324 (P. aeruginosa 39324): 32 µg/mL
MIC P. mirabilis ATCC 7002 (P. mirabilis ATCC 7002): >
MIC P. vulgaris ATCC 6896 (P. vulgaris ATCC 6896): >
MIC S. saprophyticus 15305 (S. saprophyticus 15305; 15305): >64 µg/mL
MIC S. typhimurium ATCC 14028 [10]: 8 µg/mL
MIC S. typhimurium ATCC 700408 [11]: 0.5 µg/mL
MIC S. typhimurium s5 (J. Weiser) [12]: 1 µg/mL

H-GNNRPVYIPQPRPPHPRL-OH [compound 87]
MIC E. coli BL21 A1 (E. coli BL21 A1): 2 µg/mL
MIC E. coli 045-849 SENTRY (E. coli 045-849 SENTRY): 0.5 µg/mL
MIC E. coli SEQ 102ATCC # BAA-4 57 (E. coli ATCC BAA-457): 1 µg/mL
MIC E. coli D31 J. Wilson (E. coli D31 J. Wilson): 1 µg/mL
MIC K. pneumoniae 012-3131 (K. pneumoniae 012-3131): 16 µg/mL
MIC K. pneumoniae ATCC 27799 (K. pneumoniae ATCC 27799): 4 µg/mL
MIC K. pneumoniae K6 ATCC 700603 [8]: 16 µg/mL
MIC P. aeruginosa 10 J. Wilson [9]: 32 µg/mL
MIC P. aeruginosa 39324 (P. aeruginosa 39324): 64 µg/mL
MIC P. mirabilis ATCC 7002 (P. mirabilis ATCC 7002): >
MIC P. vulgaris ATCC 6896 (P. vulgaris ATCC 6896): >
MIC S. saprophyticus 15305 (S. saprophyticus 15305; ¼ Muller-Hinton medium): >
MIC S. typhimurium ATCC 14028 [10]: 0.5 µg/mL
MIC S. typhimurium ATCC 700408 [11]: 0.13 µg/mL
MIC S. typhimurium s5 (J. Weiser) [12]: 0.5 µg/mL
